Source: US20250228818A1, “PHARMACEUTICAL COMBINATION CONTAINING CAPSID PROTEIN INHIBITOR AND REVERSE TRANSCRIPTASE INHIBITOR” (priority 2021, published 2025)

System: rAAV8-1.3HBV
Assay: AAV/HBV mouse model experiment (serum HBV DNA)
Assay type: in vivo, mouse (male, C57BL/6)
Conditions: mean ± standard error; for HBV DNA in mouse serum, day 7 / HBV DNA in mouse serum, day 14 / HBV DNA in mouse serum, day 21 / HBV DNA in mouse serum, day 28: i.g. QD day 0-27; for HBV DNA in mouse serum, day −2: day −2 (before first administration)
Protocol: rAAV8-1.3HBV (source: Beijing FivePlus Molecular Medicine Institute, titer: 1×10^12 v·g/mL) was used to establish an AAV/HBV mouse model (species: male, C57BL/6), and the mice were randomized into groups.
The compound of formula I was dissolved in DMSO, and PEG-400 was added to prepare a 1 mg/mL clear solution, which was then gradually diluted with the vehicle to 0.3 mg/mL, 0.1 mg/mL, and 0.03 mg/mL. After preparation, the dilutions were stored at room temperature.
Entecavir was dissolved in DMSO to prepare a 1 mg/mL solution, which was then gradually 1000-fold diluted with normal saline (NS) to 0.001 mg/mL. The dilution was aliquoted at 1 mL/tube to serve as a stock solution and stored in a freezer at −20° C. Each day, one tube was taken, and the solution in the tube was 10-fold diluted with NS to achieve the required administration concentration of 0.0001 mg/mL for daily administration.
rAAV8-1.3HBV (type D, ayw) was purchased from Beijing FivePlus Gene Technology Co., Ltd., with a titer of 1×10^12 v·g/mL.
Hepatitis B virus nucleic acid assay kit (Sansure Biotech Inc.), high-speed refrigerated centrifuge (Sorvall Legend), and real-time fluorescent quantitative PCR instrument (TL988).
AAV-HBV mouse model: rAAV8-1.3HBV was prepared into a solution with a concentration of 5×10^11 v·g/mL by sterile PBS in advance before injection. Each mouse was injected with 200 μL of the solution via the tail vein, with 1×10^11 v·g per mouse.
Blood sampling before grouping: On day 14 after the virus injection, all infected mice were subjected to blood sampling (approximately 100 μL per mouse) via the orbital vein for serum collection. After the whole blood was left to stand at room temperature for 30 min, serum was collected by centrifugation at 3000 rpm at 4° C. for 10 min. The collected serum was stored at −80° C. for HBV DNA, HBeAg and HBsAg detection.
Compound treatment: All mice were subjected to intragastric administration with the solvent or the compound. The day of the first administration was set as day 0 of the experiment, and the duration of administration was from day 0 to day 27. Entecavir was administered once daily (QD), and the compound of formula I was administered […]. The administration volume was 10 mL/kg.
The experimental method referred to the instructions of the hepatitis B virus nucleic acid assay kit. 5 μL of the nucleic acid release agent was added into each PCR reaction tube, and then 5 μL of the test serum, a negative control, a positive control and a quantitative reference substance were added separately. The mixture was then lysed for 10 min, and then 40 μL of PCR-mix was added, achieving a total volume of 50 μL in the system. Reaction conditions: 50° C. for 2 min, 1 cycle; 94° C. for 5 min, 1 cycle; 94° C. for 15 s, 57° C. for 30 s, 45 cycles; 25° C. for 10 s, 1 cycle. 2.4. Results in Tables 4-1 and 4-2

[1] = compound of formula I 10 mg/kg (iv), with entecavir 0.001 mg/kg (vi)
[2] = entecavir 0.001 mg/kg (ii), compound of formula I 1 mg/kg (iii), both (v)
[3] = groups: entecavir 0.001 mg/kg (ii), compound of formula I 1 mg/kg (iii), both (v)

Row | Structure (SMILES) | HBV DNA in mouse serum, day 7 [1] | HBV DNA in mouse serum, day 7 [2] | HBV DNA in mouse serum, day 14 [1] | HBV DNA in mouse serum, day 14 [2] | HBV DNA in mouse serum, day 21 [1] | HBV DNA in mouse serum, day 21 [2] | HBV DNA in mouse serum, day 28 [1] | HBV DNA in mouse serum, day 28 [2] | HBV DNA in mouse serum, day 35 (day 35 (administration ended day 27), compound of formula I 10 mg/kg (iv), with entecavir 0.001 mg/kg (vi)) | HBV DNA in mouse serum, day 42 (day 42 (administration ended day 27), compound of formula I 10 mg/kg (iv), with entecavir 0.001 mg/kg (vi)) | HBV DNA in mouse serum, day −2 (groups: compound of formula I 10 mg/kg (iv), with entecavir 0.001 mg/kg (vi)) | HBV DNA in mouse serum, day −2 [3]
1 | Cc1c(C(=O)Nc2ccc(F)c(C#N)c2)c(C)n(C)c1C(=O)C(=O)N[C@@H](C)C(F)(F)F [Compound of formula I, (S)—N-(3-cyano-4-fluorophenyl)-1,2,4-trimethyl-5-(2-oxo-2-((1,1,1-trifluoropropan-2-yl)amino)acetyl)-1H-pyrrole-3-carboxamide] | 4.72 ± 0.86 log10, copy/μL | 6.16 ± 0.36 log10, copy/μL | 3.97 ± 0.45 log10, copy/μL | 5.48 ± 0.34 log10, copy/μL | 3.97 ± 0.31 log10, copy/μL | 5.23 ± 0.33 log10, copy/μL | 3.75 ± 0.35 log10, copy/μL | 5.42 ± 0.38 log10, copy/μL | 3.77 ± 0.45 log10, copy/μL | 5.18 ± 0.74 log10, copy/μL | 7.97 ± 0.22 log10, copy/μL | 7.71 ± 0.27 log10, copy/μL
2 | C=C1[C@H](CO)[C@@H](O)C[C@@H]1n1cnc2c(=O)[nH]c(N)nc21 [Entecavir, 2-amino-9-[(1S,3R,4S)-4-hydroxy-3-hydroxymethyl-2-methylenecyclopentyl]-1,9-dihydro-6H-purin-6-one, reference compound] | – | 5.17 ± 0.54 log10, copy/μL | – | 5.30 ± 0.30 log10, copy/μL | – | 5.22 ± 0.46 log10, copy/μL | – | 5.46 ± 0.45 log10, copy/μL | – | – | – | 7.78 ± 0.28 log10, copy/μL
